The test system of one assay is A549. The assay can be described thus: A549 EC50 (cell assay, method not described). It counts as cell-based.
For a further assay, the target named is T1, 15-PGDH/HPGD (Homo sapiens, UniProt P15428).
T1 construct: purchased R&D System 5660-DH
T1 sequence (P15428 1-266): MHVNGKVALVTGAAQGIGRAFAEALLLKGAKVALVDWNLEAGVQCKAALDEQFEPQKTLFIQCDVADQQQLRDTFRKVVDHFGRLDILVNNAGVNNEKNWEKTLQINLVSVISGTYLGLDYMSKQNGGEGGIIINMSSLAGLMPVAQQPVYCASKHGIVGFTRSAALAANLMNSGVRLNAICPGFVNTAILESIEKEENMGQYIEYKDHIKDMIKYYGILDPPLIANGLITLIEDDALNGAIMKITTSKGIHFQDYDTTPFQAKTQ
The assay can be described thus: hPGDH inhibitor screening biochemical assay. The note with it: 10 nM enzyme, 15 μM Prostaglandin E2, 0.25 mM NAD, fluorescence ex/em 340/485 nm. In short, it runs like this: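 Recombinant 15-PGDH (10 nM) preincubated with compound 10 min at 37° C, then 15 μM PGE2 and 0.25 mM NAD⁺ added for 10 min at room temperature in 50 mM Tris-HCl pH 7.5, 0.01% Tween 20. NADH fluorescence at ex/em 340/485 nm; 10-point dose response.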

Bounds are passed on as bounds.

As to `COCC[C@@H](O)c1cnc2c(cnn2-c2cccc(-c3nnc[nH]3)c2)c1` [Compound 36A], the EC50 in the assay with A549 (Homo sapiens, A549, A549) was below 100 nM. At 15-PGDH/HPGD, the half-maximal inhibitory concentration (IC50) is below 100 nM.
As for `CCOC1([C@@H](O)c2cnc3c(cnn3-c3ccc4nc(N5CCOCC5)nn4c3)c2)CC1` [Compound 62B], the EC50 with A549 (Homo sapiens, A549, A549) was at least 1000 nM. This molecule also came in with a 50% inhibitory concentration (IC50) against 15-PGDH/HPGD of 100 to 1000 nM.
For `O=C(NC[C@@H](O)c1cnc2c(cnn2-c2cccc(-c3nnc[nH]3)c2)c1)C1CC1` [Compound 39B], the EC50 in the assay with A549 (Homo sapiens, A549, A549) is at least 1000 nM. Also, the IC50 at 15-PGDH/HPGD was in the range of 100 to 1000 nM.
For the molecule `CCOC1([C@@H](O)c2cnc3c(cnn3-c3cccc(-c4nnc[nH]4)c3)c2)CC1` [Compound 63B], in the assay on A549 (Homo sapiens, A549, A549), the EC50 lay within 100 to 1000 nM. Further, the IC50 on 15-PGDH/HPGD was below 100 nM.
`CC(C)OC[C@@H](O)c1cnc2c(cnn2-c2ccc(CC(=O)O)cc2)c1` [Compound 71A] gave an EC50 in the assay on A549 (Homo sapiens, A549, A549) of 100 to 1000 nM. The same molecule came in with an IC50 against 15-PGDH/HPGD of 100 to 1000 nM.
Molecule `CC(C)C[C@@H](O)[C@@H](O)c1cnc2c(ccn2-c2cccc(-c3nnc[nH]3)c2)c1` [Compound 3D, (1S,2R)-4-methyl-1-[1-[3-(4H-1,2,4-triazol-3-yl)phenyl]pyrrolo[2,3-b]pyridin-5-yl]pentane-1,2-diol] had an EC50 in the assay on A549 (A549) below 100 nM. Also, the half-inhibitory concentration (IC50) on 15-PGDH/HPGD was below 100 nM.
As for `CC(C)OCC[C@@H](O)c1cnc2c(ccn2-c2cccc(-c3nnc[nH]3)c2)c1` [Compound 41B], in the assay with A549 (Homo sapiens, A549, A549), the EC50 is below 100 nM. This molecule came in with an IC50 against 15-PGDH/HPGD below 100 nM.
With `CCNCC(O)c1cnc2c(cnn2-c2cccc(-c3nnc[nH]3)c2)c1` (stereo not drawn) [Compound 21], the half-maximal effective concentration (EC50) with A549 (Homo sapiens, A549, A549) was at least 1000 nM. Besides, at 15-PGDH/HPGD, the half-inhibitory concentration (IC50) was at least 1000 nM.
As for `C[S+]([O-])c1ccc(-n2ncc3cc([C@H](O)COC4CCC4)cnc32)cc1` (stereo partly drawn) [Compound 124B], the EC50 in the assay with A549 (Homo sapiens, A549, A549) is at least 1000 nM. Besides, on 15-PGDH/HPGD, the half-inhibitory concentration (IC50) is at least 1000 nM.
As to `O=C(O)[C@@H]1CCN(c2ccc(-n3ncc4cc([C@H](O)COC5CCC5)cnc43)cc2)C1` [Compound 87B], in the assay with A549 (Homo sapiens, A549, A549), the 50% effective concentration (EC50) was 100 to 1000 nM. Moreover, the half-inhibitory concentration (IC50) against 15-PGDH/HPGD fell in the range of 100 to 1000 nM.
On to `O[C@@H](c1cnc2c(ccn2-c2cc(Cl)cc(-c3nnc[nH]3)c2)c1)C1CCC(F)(F)CC1` [Compound 12A], for which the 50% effective concentration (EC50) with A549 (Homo sapiens, A549, A549) is at least 1000 nM. The molecule also returned a half-maximal inhibitory concentration (IC50) at 15-PGDH/HPGD below 100 nM.
With `CSc1cccc(-n2ncc3cc([C@H](O)COC4CCC4)cnc32)c1` [Compound 122B], the half-maximal effective concentration (EC50) with A549 (Homo sapiens, A549, A549) was at least 1000 nM. In addition, the IC50 against 15-PGDH/HPGD is at least 1000 nM.
Consider `O=C(O)c1ccc(-n2ncc3cc([C@@H](O)COC4CCC4)cnc32)cc1` [Compound 42A, (R)-4-(5-(2-cyclobutoxy-1-hydroxyethyl)-1H-pyrazolo[3,4-b]pyridin-1-yl)benzoic acid], for which the EC50 in the assay with A549 (Homo sapiens, A549, A549) is at least 1000 nM. This molecule also registered a concentration for half-maximal inhibition (IC50) against 15-PGDH/HPGD below 100 nM.
As to `COCC[C@H](O)c1cnc2c(cnn2-c2cccc(-c3nnc[nH]3)c2)c1` [Compound 36B], the concentration for a half-maximal effect (EC50) in the assay with A549 (Homo sapiens, A549, A549) was 100 to 1000 nM. On 15-PGDH/HPGD, this molecule registered a concentration for half-maximal inhibition (IC50) below 100 nM.
With `O=C(O)c1ccc(-n2ncc3cc([C@@H](O)C4(OCC(F)F)CC4)cnc32)cc1` [Compound 72B], in the assay on A549 (Homo sapiens, A549, A549), the EC50 is at least 1000 nM. For the same molecule, the IC50 at 15-PGDH/HPGD is at least 1000 nM.
`CNC(=O)c1ccc(-n2ncc3cc([C@@H](O)COC4CCC4)cnc32)cc1` [Compound 84B] registered a 50% effective concentration (EC50) with A549 (Homo sapiens, A549, A549) of at least 1000 nM. Further, the concentration for half-maximal inhibition (IC50) against 15-PGDH/HPGD lay within 100 to 1000 nM.
The molecule `CNC(=O)c1cccc(-n2ncc3cc([C@H](O)COC4CCC4)cnc32)c1` [Compound 110B] showed an EC50 in the assay with A549 (Homo sapiens, A549, A549) of at least 1000 nM. Further, the IC50 against 15-PGDH/HPGD is at least 1000 nM.
Regarding `O=C(NC[C@H](O)c1cnc2c(cnn2-c2cccc(-c3nnc[nH]3)c2)c1)C1CC1` [Compound 39A], the half-maximal effective concentration (EC50) in the assay on A549 (Homo sapiens, A549, A549) is at least 1000 nM. The IC50 against 15-PGDH/HPGD is at least 1000 nM.
`CC(C)(O)CC[C@@H](O)c1cnc2c(cnn2-c2cccc(-c3nnc[nH]3)c2)c1` [Compound 56B]: the EC50 in the assay on A549 (Homo sapiens, A549, A549) fell in the range of 100 to 1000 nM. In addition, the half-inhibitory concentration (IC50) on 15-PGDH/HPGD was below 100 nM.
The molecule `O[C@H](COC1CCC1)c1cnc2c(cnn2-c2ccc(N3CCOCC3)cc2)c1` [Compound 76B] yielded a half-maximal effective concentration (EC50) in the assay with A549 (Homo sapiens, A549, A549) of at least 1000 nM. The molecule further registered an IC50 against 15-PGDH/HPGD of at least 1000 nM.
In the assay on A549 (Homo sapiens, A549, A549), `CC(C)CC[C@H](O)c1cnc2c(ccn2-c2ccc(C(=O)O)cc2)n1` [Compound 40A] gave an EC50 below 100 nM. Moreover, the IC50 against 15-PGDH/HPGD is below 100 nM.
Take `CC(C)OC[C@H](O)c1cnc2c(ccn2-c2ccc(C(=O)O)cc2)n1` [Compound 49A]: the half-maximal effective concentration (EC50) in the assay with A549 (Homo sapiens, A549, A549) is at least 1000 nM. The IC50 at 15-PGDH/HPGD was below 100 nM.
On to `NC(=O)c1ccc(-n2ncc3cc([C@@H](O)COC4CCC4)cnc32)cc1` [Compound 81B], for which the EC50 with A549 (Homo sapiens, A549, A549) lay within 100 to 1000 nM. Besides, on 15-PGDH/HPGD, the concentration for half-maximal inhibition (IC50) was below 100 nM.
The molecule `CC(C)C[C@@H](O)C(O)c1cnc2c(ccn2-c2cccc(-c3nnc[nH]3)c2)c1` (stereo in doubt) [Compound 3A, (1R,2R)-4-methyl-1-[1-[3-(4H-1,2,4-triazol-3-yl)phenyl]pyrrolo[2,3-b]pyridin-5-yl]pentane-1,2-diol] showed an EC50 with A549 (Homo sapiens, A549, A549) below 100 nM. The same molecule displayed an IC50 at 15-PGDH/HPGD below 100 nM.
Consider `O[C@H](c1cnc2c(cnn2-c2cccc(-c3nnc[nH]3)c2)c1)[C@@H]1CCOC1` [Compound 68D], for which the concentration giving a half-maximal response (EC50) in the assay on A549 (Homo sapiens, A549, A549) lay in the range of 100 to 1000 nM. At 15-PGDH/HPGD, this molecule registered an IC50 below 100 nM.
Turning to `CC(C)NC[C@H](O)c1cnc2c(cnn2-c2cccc(-c3nnc[nH]3)c2)c1` [Compound 27A, (R)-1-(1-(3-(4H-1,2,4-triazol-3-yl)phenyl)-1H-pyrazolo[3,4-b]pyridin-5-yl)-2-(isopropylamino) ethan-1-ol], the half-maximal effective concentration (EC50) with A549 (Homo sapiens, A549, A549) is at least 1000 nM. The molecule further registered an IC50 against 15-PGDH/HPGD of at least 1000 nM.
With `CC(C)(C)OC[C@@H](O)c1cnc2c(ccn2-c2cccc(-c3nnc[nH]3)c2)c1` [Compound 31B], the EC50 in the assay on A549 (Homo sapiens, A549, A549) is below 100 nM. In addition, the half-maximal inhibitory concentration (IC50) on 15-PGDH/HPGD is below 100 nM.
With `O=C(O)CCc1ccc(-n2ncc3cc([C@@H](O)COC4CCC4)cnc32)cc1F` [Compound 82A], the concentration giving a half-maximal response (EC50) in the assay with A549 (Homo sapiens, A549, A549) lay within 100 to 1000 nM. On 15-PGDH/HPGD, the IC50 was below 100 nM.
In the case of `O=C(O)c1ccc(-n2ncc3cc([C@@H](O)COCC4CC4)ccc32)cc1` [Compound 114A], the concentration for a half-maximal effect (EC50) with A549 (Homo sapiens, A549, A549) is at least 1000 nM. This molecule displayed a 50% inhibitory concentration (IC50) on 15-PGDH/HPGD of 100 to 1000 nM.
Molecule `CC(C)OCC[C@H](O)c1cnc2c(ccn2-c2cccc(-c3nnc[nH]3)c2)c1` [Compound 41A] yielded a half-maximal effective concentration (EC50) in the assay with A549 (Homo sapiens, A549, A549) of 100 to 1000 nM. This molecule came in with an IC50 against 15-PGDH/HPGD below 100 nM.

For the origin of these results see patent US20260234139A1, “PGDH INHIBITORS AND METHODS OF MAKING AND USING” (Epirium Bio Inc., priority 2023, published 2026).
